US8557816B2, “Aurora kinase modulators and method of use” (Amgen Inc., priority 2007, dated 2013)

What was measured:
[1] = target: T1, AuroraA-TPX2 (Homo sapiens, UniProt O14965); assay: AuroraA-TPX2 Homogeneous Time Resolved Fluorescent (HTRF) kinase assay; type: biochemical; settings: average; read-out: AurA_IC50_IP (uM Avg)
T1 construct: 20 μL of AuroraA-TPX2 KD GST for a final volume of about 41 μL; GST
T1 sequence (O14965 133-383 limits assumed): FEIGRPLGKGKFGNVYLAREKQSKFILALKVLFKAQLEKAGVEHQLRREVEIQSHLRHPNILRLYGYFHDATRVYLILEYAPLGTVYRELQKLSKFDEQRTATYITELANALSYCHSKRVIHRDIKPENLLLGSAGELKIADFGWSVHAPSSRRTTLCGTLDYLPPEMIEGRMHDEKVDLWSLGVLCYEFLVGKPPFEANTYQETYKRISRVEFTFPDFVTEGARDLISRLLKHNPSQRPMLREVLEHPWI
T1 sequence (Q9ULW0 1-43 partner limits assumed): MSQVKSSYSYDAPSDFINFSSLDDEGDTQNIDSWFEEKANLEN
Outline: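 HTRF read-out (Eu 615 nm to APC 655 nm) of phosphorylated biotin-PLK, detected with 0.02 nM europium anti-phosphoPLK antibody and 0.0005 mg/mL SA-APC after overnight equilibration.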

[2] = target: T2, AuroraB (Homo sapiens, UniProt Q96GD4); assay: AuroraB Homogeneous Time Resolved Fluorescent (HTRF) kinase assay; type: biochemical; settings: average; read-out: AurB_IC50_IP (uM Avg)
T2 construct: 20 μL of AuroraB FL H is for a final volume of 41 μL; His
Outline: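 Full-length His-tagged kinase phosphorylates biotinylated Histone H3 (0.1 μM final) with ATP in pH 7.5 HEPES containing MgCl, MnCl, DTT and BSA for about 90 min. EDTA-containing detection mix with SA-APC and Eu-anti-phosphoHistone H3 then equilibrated about 60 min; HTRF read with 320 nm excitation, emissions 615/655 nm.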

T2 sequence (Q96GD4 whole entry): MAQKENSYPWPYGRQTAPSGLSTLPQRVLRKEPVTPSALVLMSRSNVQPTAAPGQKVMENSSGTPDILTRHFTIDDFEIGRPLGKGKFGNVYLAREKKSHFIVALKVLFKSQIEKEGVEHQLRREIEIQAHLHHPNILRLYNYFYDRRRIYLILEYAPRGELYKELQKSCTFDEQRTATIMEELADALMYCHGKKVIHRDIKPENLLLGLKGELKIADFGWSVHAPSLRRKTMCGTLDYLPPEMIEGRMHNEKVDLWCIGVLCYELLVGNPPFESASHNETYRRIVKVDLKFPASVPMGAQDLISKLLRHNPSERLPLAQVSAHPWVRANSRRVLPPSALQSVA

IC50 [1] [µM]	IC50 [2] [µM]	SMILES
0.231	0.006	COc1cnc2c(Oc3ccc(Nc4nnc(-c5sccc5C)c5ccccc45)cc3)ccnc2c1 [compound 185, N-(4-((7-(methyloxy)-1,5-naphthyridin-4-yl)oxy)phenyl)-4-(3-methyl-2-thienyl)-1-phthalazinamine]
0.017	0.006	COc1cnc2c(Oc3ccc(Nc4nnc(-c5cc(C)cc(C)c5)c5ccccc45)cc3)ccnc2c1 [compound 188, 4-(3,5-dimethylphenyl)-N-(4-((7-(methyloxy)-1,5-naphthyridin-4-yl)oxy)phenyl)-1-phthalazinamine]
0.022	0.009	COc1cnc2c(Oc3ccc(Nc4nnc(-c5ncc(C)s5)c5ccccc45)cc3)ccnc2c1 [compound 189, N-(4-((7-(methyloxy)-1,5-naphthyridin-4-yl)oxy)phenyl)-4-(5-methyl-1,3-thiazol-2-yl)-1-phthalazinamine]
0.052	0.005	COc1cnc2c(Oc3ccc(Nc4nnc(-c5ccc(F)nc5)c5ccccc45)cc3)ccnc2c1 [compound 190, 4-(6-fluoro-3-pyridinyl)-N-(4-((7-(methyloxy)-1,5-naphthyridin-4-yl)oxy)phenyl)-1-phthalazinamine]
0.088	0.005	COc1cnc2c(Oc3ccc(Nc4nnc(-c5ccc6sc(C)nc6c5)c5ccccc45)cc3)ccnc2c1 [compound 195, 4-(2-methyl-1,3-benzothiazol-5-yl)-N-(4-((7-(methyloxy)-1,5-naphthyridin-4-yl)oxy)phenyl)-1-phthalazinamine]
0.027	0.002	CCc1cc(-c2ccc(C)cc2)nnc1Nc1ccc(Oc2ccnc3cc(OC)cnc23)cc1 [compound 199, 4-ethyl-N-(4-((7-(methyloxy)-1,5-naphthyridin-4-yl)oxy)phenyl)-6-(4-methylphenyl)-3-pyridazinamine]
0.087	0.003	COc1cnc2c(Oc3ccc(Nc4nnc(-c5ncco5)c5ccccc45)cc3)ccnc2c1 [compound 200, N-(4-((7-(methyloxy)-1,5-naphthyridin-4-yl)oxy)phenyl)-4-(1,3-oxazol-2-yl)-1-phthalazinamine]
0.035	0.006	COc1cnc2c(Oc3ccc(Nc4nnc(-c5ccc(Cl)c(Cl)c5)c5ccccc45)cc3)ccnc2c1 [compound 201, 4-(3,4-dichlorophenyl)-N-(4-((7-(methyloxy)-1,5-naphthyridin-4-yl)oxy)phenyl)-1-phthalazinamine]
0.06	0.004	CCc1cc(-c2ccc(C)s2)nnc1Nc1ccc(Oc2ccnc3cc(OC)cnc23)cc1 [compound 205, 4-ethyl-N-(4-((7-(methyloxy)-1,5-naphthyridin-4-yl)oxy)phenyl)-6-(5-methyl-2-thienyl)-3-pyridazinamine]
0.012	0.001	COc1cnc2c(Oc3ccc(Nc4nnc(-c5ccc(C)c(N)c5)c5ccccc45)cc3)ccnc2c1 [compound 209, 4-(3-amino-4-methylphenyl)-N-(4-((7-(methyloxy)-1,5-naphthyridin-4-yl)oxy)phenyl)-1-phthalazinamine]
0.031	0.002	CCc1cc(-c2cc(C)cs2)nnc1Nc1ccc(Oc2ccnc3cc(OC)cnc23)cc1 [compound 210, 4-ethyl-N-(4-((7-(methyloxy)-1,5-naphthyridin-4-yl)oxy)phenyl)-6-(4-methyl-2-thienyl)-3-pyridazinamine]
0.478	0.018	COc1cnc2c(Oc3ccc(Nc4nnc(-c5cn[nH]c5)c5ccccc45)cc3)ccnc2c1 [compound 212, N-(4-((7-(methyloxy)-1,5-naphthyridin-4-yl)oxy)phenyl)-4-(1H-pyrazol-4-yl)-1-phthalazinamine]

Continued, compound first:

SMILES	IC50 [1] [µM]	IC50 [2] [µM]
COc1cnc2c(Oc3ccc(Nc4nnc(-c5ccc(C#N)cc5)c5ccccc45)cc3)ccnc2c1 [compound 181, 4-(4-((4-((7-(methyloxy)-1,5-naphthyridin-4-yl)oxy)phenyl)amino)-1-phthalazinyl)benzonitrile]	0.171	0.007
COc1cnc2c(Oc3ccc(Nc4nnc(-c5cnc6ccccc6c5)c5ccccc45)cc3)ccnc2c1 [compound 182, N-(4-((7-(methyloxy)-1,5-naphthyridin-4-yl)oxy)phenyl)-4-(3-quinolinyl)-1-phthalazinamine]	0.023	0.002
COc1cnc2c(Oc3ccc(Nc4nnc(-c5cccc6[nH]ccc56)c5ccccc45)cc3)ccnc2c1 [compound 183, 4-(1H-indol-4-yl)-N-(4-((7-(methyloxy)-1,5-naphthyridin-4-yl)oxy)phenyl)-1-phthalazinamine]	0.033	0.003
Cc1ccsc1-c1nnc(Nc2ccc(Oc3ccnc4cc(C#N)ccc34)cc2)c2ccccc12 [compound 184, 4-((4-((4-(3-methyl-2-thienyl)-1-phthalazinyl)amino)phenyl)oxy)-7-quinolinecarbonitrile]	0.201	0.003
COc1cccc(-c2nnc(Nc3ccc(Oc4ccnc5ccccc45)c(F)c3)c3ccccc23)n1 [compound 186, N-(3-fluoro-4-(4-quinolinyloxy)phenyl)-4-(6-(methyloxy)-2-pyridinyl)-1-phthalazinamine]	0.059	0.002
COc1cnc2c(Oc3ccc(Nc4nnc(-c5ccc(C)cc5)c5ccccc45)cc3F)ccnc2c1 [compound 187, N-(3-fluoro-4-((7-(methyloxy)-1,5-naphthyridin-4-yl)oxy)phenyl)-4-(4-methylphenyl)-1-phthalazinamine]	0.006	0.004
COc1cnc2c(Oc3ccc(Nc4nnc(-c5cccnc5F)c5ccccc45)cc3)ccnc2c1 [compound 191, 4-(2-fluoro-3-pyridinyl)-N-(4-((7-(methyloxy)-1,5-naphthyridin-4-yl)oxy)phenyl)-1-phthalazinamine]	0.104	0.009
COc1cnc2c(Oc3ccc(Nc4nnc(-c5ccc(F)c(Cl)c5)c5ccccc45)cc3)ccnc2c1 [compound 193, 4-(3-chloro-4-fluorophenyl)-N-(4-((7-(methyloxy)-1,5-naphthyridin-4-yl)oxy)phenyl)-1-phthalazinamine]	0.023	0.005
COc1cnc2c(Oc3ccc(Nc4nnc(-c5ccc(N(C)C)cc5)c5ccccc45)cc3)ccnc2c1 [compound 194, 4-(4-(dimethylamino)phenyl)-N-(4-((7-(methyloxy)-1,5-naphthyridin-4-yl)oxy)phenyl)-1-phthalazinamine]	0.023	0.01
CCCc1cc(-c2ccccc2)nnc1Nc1ccc(Oc2ccnc3cc(C#N)ccc23)cc1 [compound 196, 4-((4-((6-phenyl-4-propyl-3-pyridazinyl)amino)phenyl)oxy)-7-quinolinecarbonitrile]	0.672	0.006
COc1cnc2c(Oc3ccc(Nc4nnc(-c5ccc(N6CCCCC6)cc5)c5ccccc45)cc3)ccnc2c1 [compound 198, N-(4-((7-(methyloxy)-1,5-naphthyridin-4-yl)oxy)phenyl)-4-(4-(1-piperidinyl)phenyl)-1-phthalazinamine]	0.128	0.004
Cn1cncc1-c1cc2nccc(Oc3ccc(Nc4nnc(-c5ccccc5)c5ccccc45)cc3)c2s1 [compound 202, N-(4-((2-(1-methyl-1H-imidazol-5-yl)thieno[3,2-b]pyridin-7-yl)oxy)phenyl)-4-phenyl-1-phthalazinamine]	0.02	0.002
Cc1ccc(-c2nnc(Nc3ccc(Oc4ccnc5cc(-c6cncn6C)sc45)cc3)c3ccccc23)cc1 [compound 203, N-(4-((2-(1-methyl-1H-imidazol-5-yl)thieno[3,2-b]pyridin-7-yl)oxy)phenyl)-4-(4-methylphenyl)-1-phthalazinamine]	0.008	0.002
COc1cnc2c(Oc3ccc(Nc4nnc(-c5ccc6c(ccn6C)c5)c5ccccc45)cc3)ccnc2c1 [compound 204, 4-(1-methyl-1H-indol-5-yl)-N-(4-((7-(methyloxy)-1,5-naphthyridin-4-yl)oxy)phenyl)-1-phthalazinamine]	0.026	0.003
COc1cnc2c(Oc3ccc(Nc4nnc(-c5ccc6cc[nH]c6c5)c5ccccc45)cc3)ccnc2c1 [compound 206, 4-(1H-indol-6-yl)-N-(4-(7-methoxy-1,5-naphthyridin-4-yloxy)phenyl)phthalazin-1-amine]	0.017	0.003
N#Cc1ccc2c(Sc3ccc(Nc4nnc(-c5ccccc5)c5ccccc45)cc3)ccnc2c1 [compound 208, 4-((4-((4-phenyl-1-phthalazinyl)amino)phenyl)thio)-7-quinolinecarbonitrile]	0.18	0.007
COc1cc2nccc(Oc3ccc(Nc4nnc(-c5ccc(C)cc5)c5ccccc45)cc3)c2cc1C(N)=O [compound 211, 7-(methyloxy)-4-((4-((4-(4-methylphenyl)-1-phthalazinyl)amino)phenyl)oxy)-6-quinolinecarboxamide]	0.006	0.001
